{"source": "patent US9302999B2", "about": "“Substituted triazoles as herbicides” (E. I. DU PONT DE NEMOURS AND COMPANY, priority 2012, dated 2016)", "format_in_all_cases": "in vivo", "key": {"[1]": {"tested_on": "ducksalad (Heteranthera limosa)", "test": "Test B flooded paddy: ducksalad", "details": "Flood; 125 g ai/ha; applied to paddy water at 2-leaf stage; visually evaluated after 13 to 15 days", "procedure,_shortened": "(§1)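 Each compound is applied to the floodwater of pots holding 2-leaf seedlings, water standing 3 cm over the soil throughout. Plants stay in a greenhouse 13 to 15 days before visual scoring against controls from 0 (no effect) to 100 (complete control).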"}, "[2]": {"tested_on": "sedge, umbrella (small-flower umbrella sedge Cyperus difformis)", "test": "Test B flooded paddy: sedge, umbrella", "details": "Flood; 125 g ai/ha; applied to paddy water at 2-leaf stage; visually evaluated after 13 to 15 days", "procedure,_shortened": "as §1"}, "[3]": {"tested_on": "velvetleaf (Abutilon theophrasti)", "test": "Test A pre-/postemergence: velvetleaf", "procedure,_shortened": "(§2)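 Each species received preemergence soil-directed spraying and, at the same time, postemergence treatment of seedlings 2–10 cm tall. Formulation: non-phytotoxic solvent mixture including surfactant. Response assessed visually about ten days on, relative to untreated controls, 0–100 scale.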"}, "[4]": {"tested_on": "morningglory (Ipomoea spp.)", "test": "Test A pre-/postemergence: morningglory", "procedure,_shortened": "as §2"}, "rice (Oryza sativa)": {"tested_on": "rice (Oryza sativa)", "test": "Test B flooded paddy: rice", "details": "Flood; 125 g ai/ha; applied to paddy water at 2-leaf stage; visually evaluated after 13 to 15 days", "procedure,_shortened": "as §1"}, "[5]": {"tested_on": "barnyardgrass (Echinochloa crus-galli)", "test": "Test A pre-/postemergence: barnyardgrass", "procedure,_shortened": "as §2"}, "[6]": {"tested_on": "barnyardgrass (Echinochloa crus-galli)", "test": "Test B flooded paddy: barnyardgrass", "details": "Flood; 125 g ai/ha; applied to paddy water at 2-leaf stage; visually evaluated after 13 to 15 days", "procedure,_shortened": "as §1"}, "corn (Zea mays)": {"tested_on": "corn (Zea mays)", "test": "Test A pre-/postemergence: corn", "procedure,_shortened": "as §2"}, "[7]": {"tested_on": "foxtail, giant (giant foxtail, Setaria faberii)", "test": "Test A pre-/postemergence: foxtail, giant", "procedure,_shortened": "as §2"}, "[8]": {"tested_on": "wheat (Triticum aestivum)", "test": "Test A pre-/postemergence: wheat", "procedure,_shortened": "as §2"}, "[9]": {"tested_on": "pigweed (Amaranthus retroflexus)", "test": "Test A pre-/postemergence: pigweed", "procedure,_shortened": "as §2"}, "[10]": {"tested_on": "crabgrass, large (large crabgrass, Digitaria sanguinalis)", "test": "Test A pre-/postemergence: crabgrass, large", "procedure,_shortened": "as §2"}, "[11]": {"details": "Postemergence, 125 g ai/ha, 0 to 100 scale, 0 is no effect, 100 is complete control"}, "[12]": {"details": "Postemergence, 500 g ai/ha, 0 to 100 scale, 0 is no effect, 100 is complete control"}, "[13]": {"details": "Preemergence, 125 g ai/ha, 0 to 100 scale where 0 is no effect and 100 is complete control"}, "[14]": {"details": "Preemergence, 500 g ai/ha, 0 to 100 scale (0 no effect, 100 complete control)"}}}
{"compound": "FC(F)(F)c1cccc(-n2nc(Oc3ccnc(C(F)(F)F)c3)c(C3CC3)n2)c1", "note": "[Compound 199]", "values": [{"measurement": "Plant response rating, Ducksalad (0 to 100 scale, 0 is no effect, 100 is complete control)", "setting": "[1]", "result": 0}, {"measurement": "Plant response rating, Sedge, Umbrella (0 to 100 scale, 0 is no effect, 100 is complete control)", "setting": "[2]", "result": 0}, {"measurement": "Plant response rating, Velvetleaf", "setting": "[3]; [11]", "result": 10}, {"measurement": "Velvetleaf plant response rating", "setting": "[3]; [12]", "result": 10}, {"measurement": "Plant response rating, Velvetleaf", "setting": "[3]; [13]", "result": 0}, {"measurement": "Plant response rating, Velvetleaf", "setting": "[3]; [14]", "result": 0}, {"measurement": "Plant response rating, Morningglory", "setting": "[4]; [11]", "result": 10}, {"measurement": "Morningglory plant response rating", "setting": "[4]; [12]", "result": 20}, {"measurement": "Plant response rating, Morningglory", "setting": "[4]; [13]", "result": 0}, {"measurement": "Plant response rating, Morningglory", "setting": "[4]; [14]", "result": 0}, {"measurement": "Plant response rating, Rice (0 to 100 scale, 0 is no effect, 100 is complete control)", "setting": "rice (Oryza sativa)", "result": 0}, {"measurement": "Plant response rating, Barnyardgrass", "setting": "[5]; [11]", "result": 10}, {"measurement": "Barnyardgrass plant response rating", "setting": "[5]; [12]", "result": 10}, {"measurement": "Plant response rating, Barnyardgrass", "setting": "[5]; [13]", "result": 0}, {"measurement": "Plant response rating, Barnyardgrass", "setting": "[5]; [14]", "result": 0}, {"measurement": "Plant response rating, Barnyardgrass (0 to 100 scale, 0 is no effect, 100 is complete control)", "setting": "[6]", "result": 0}, {"measurement": "Plant response rating, Corn", "setting": "corn (Zea mays); [11]", "result": 10}, {"measurement": "Corn plant response rating", "setting": "corn (Zea mays); [12]", "result": 20}, {"measurement": "Plant response rating, Corn", "setting": "corn (Zea mays); [13]", "result": 0}, {"measurement": "Plant response rating, Corn", "setting": "corn (Zea mays); [14]", "result": 0}, {"measurement": "Plant response rating, Foxtail, Giant", "setting": "[7]; [11]", "result": 10}, {"measurement": "Foxtail, Giant plant response rating", "setting": "[7]; [12]", "result": 20}, {"measurement": "Plant response rating, Foxtail, Giant", "setting": "[7]; [13]", "result": 0}, {"measurement": "Plant response rating, Foxtail, Giant", "setting": "[7]; [14]", "result": 50}, {"measurement": "Plant response rating, Wheat", "setting": "[8]; [11]", "result": 0}, {"measurement": "Wheat plant response rating", "setting": "[8]; [12]", "result": 0}, {"measurement": "Plant response rating, Wheat", "setting": "[8]; [13]", "result": 0}, {"measurement": "Plant response rating, Wheat", "setting": "[8]; [14]", "result": 0}, {"measurement": "Plant response rating, Pigweed", "setting": "[9]; [11]", "result": 20}, {"measurement": "Pigweed plant response rating", "setting": "[9]; [12]", "result": 60}, {"measurement": "Plant response rating, Pigweed", "setting": "[9]; [13]", "result": 10}, {"measurement": "Plant response rating, Pigweed", "setting": "[9]; [14]", "result": 30}, {"measurement": "Plant response rating, Crabgrass, Large", "setting": "[10]; [11]", "result": 10}, {"measurement": "Crabgrass, Large plant response rating", "setting": "[10]; [12]", "result": 20}, {"measurement": "Plant response rating, Crabgrass, Large", "setting": "[10]; [13]", "result": 20}, {"measurement": "Plant response rating, Crabgrass, Large", "setting": "[10]; [14]", "result": 70}]}
